Reference: US20260002931A1, “CULTURED CELL SHEET AND METHOD FOR PRODUCING SAME; METHOD FOR EVALUATING COMPOUND OR DRUG; AND METHOD FOR EVALUATING QUALITY OF CULTURED CELL SHEET” (OJI HOLDINGS CORPORATION, priority 2022, published 2026)

Experiments:
[1] = test system: iCell cardiomyocytes CM2 (human iPS cell-derived cardiomyocytes); assay: Drug safety test-2: motion test method using live cell imaging device, CM2 cultured for 15 days; format: cell-based; settings: for beating rate (BR), relative to dose0 / contractile velocity (CV), relative to dose0 / relaxation velocity (RV), relative to dose0: day 15, doses of Table 7, 120 min isoproterenol, 15 min milrinone
Experimental: The drug used was isoproterenol and milrinone. […] First, the measurement as dose0 was performed without adding drugs.
For the cell responsiveness after drug administration, a motion test method using a live cell imaging device (SI8000, manufactured by Sony Corporation) was performed to investigate the effect on the beating rate, the contractile velocity, and the relaxation velocity.
CM2 on day 15 of maintenance culture was used, and video data was first obtained as dose0 using SI8000 (manufactured by Sony Corporation) without adding drugs. Immediately after the measurement, each drug at the concentration of each dose was added to the same well plate, and video data was obtained after 120 minutes for isoproterenol and after 15 minutes for milrinone. The addition test of each drug was performed at n=5.
The beating rate (BR), the contractile velocity (CV), and the relaxation velocity (RV) were analyzed from the video data of SI8000, and the effects of the drugs on the motion of the cells were compared.
The measurement data was corrected with the average value of dose0 of no adding drugs (each measurement value/measurement value of dose0), and the relative value with setting the measurement value of dose0 as 1 was determined.

[2] = test system: iCell cardiomyocyte CM2 (human iPS cell-derived cardiomyocytes); assay: Drug safety test-1: arrhythmia measurement by Ca-imaging (CQ1); format: cell-based; settings: for duration (20% waveform width of Ca transient) / interval between peaks of Ca transient: cumulative dose1-dose3 of Table 2
Experimental: (§1) The drug was dissolved in DMSO and cumulatively administered. First, the measurement as dose0 was performed without adding drugs. […] Subsequently, immediately after the measurement, the drug was added to the same well, respectively so that the concentration was dose2, and the measurement was performed after 15 minutes. The same was done for dose3.
(§2) For the cell responsiveness after the drug administration, an arrhythmia measurement method by Ca-imaging using a confocal imaging device (CQ1, manufactured by Yokogawa Electric Corporation) and a motion test method using a live cell imaging device (SI8000, manufactured by Sony Corporation) were performed to investigate the effect on the beating rate and the line width of the beating peak.
To CM2 on day 6 of maintenance culture, a fluorescent Ca indicator (EarlyTox carditotoxicity kit, manufactured by Molecular Devices, LLC.) was added, and living cells were stained. First, the change in Ca fluorescence intensity associated with the contraction of cardiomyocytes was measured as Dose0 in CQ1 without adding drugs. Immediately after the measurement, each drug at the concentration of Dose1 was added to the same well plate, and the change in Ca fluorescence intensity was measured after 15 minutes. For Dose2 and Dose3, the drug was cumulatively administered in the same manner, and the change in Ca fluorescence intensity was measured. The addition test of each drug was performed at n=6.
The significant difference test was performed between the subject group in which DMSO was added and the drug addition group in CM2 cultured in the planar plate and CM2 cultured the aligned plate.
For the side effects seen from the waveform changes of Ca transient, early after depolarization (EAD) and delayed after depolarization (DAD), small regular waveforms (VT-like), and reaction (waveform) disappearance were recorded. The“−” in the table indicates the state in which no arrhythmia or the like has occurred. The degree of arrhythmia is mild for EAD, moderate for DAD, and severe for vt-like.

[3] = test system: CM2 (human iPS cell-derived cardiomyocytes); assay: Measurement of oxygen consumption rate with β-oxidation inhibitor; format: cell-based; settings: day 27, 50 μM; for OCR with addition of Etomoxir: 10 to 70 minutes
Experimental: The measurement was performed using an oxygen consumption rate plate assay kit (manufactured by DOJINDO LABORATORIES, E297).
To the well plate in which CM2 was cultured, an oxygen probe diluted with medium was added and allowed to stand for 30 minutes in a plate reader incubated at 37° C. in advance. Next, a sample solution containing a β-oxidation inhibitor Etomoxir that inhibits a fatty acid metabolism enzyme at the final concentration 50 μM was added, and mineral oil was immediately added dropwise to block the supply of oxygen.
After allowing the well plate to stand for 5 minutes in a plate reader incubated at 37° C., the fluorescence intensity was measured over time. The fluorescent plate reader was measured under conditions of an excitation wavelength of 495 nm/fluorescence wavelength of 650 nm, and the data acquisition was performed for at least 168 minutes every 10 minutes.
The measurement was performed with 6 wells without addition of Etomoxir as control and 3 wells with addition of 50 μM Etomoxir.
The oxygen concentration (pmol) was calculated with the calculation sheet attached to the oxygen consumption rate plate assay kit, and the oxygen consumption rate (pmol/min) was calculated from the oxygen concentration reduction amount for 60 minutes of 10 to 70 minutes after the start of the measurement.

[4] = test system: iCell cardiomyocyte CM2 (human iPS cell-derived cardiomyocytes); assay: Drug safety test-3 (anti-cancer drug): motion test method using live cell imaging device, CM2 cultured for 15 days; settings: 3 μM; for beating rate (BR), change rate vs pre-measurement: day 15, after 24 and 48 hours
Experimental: iCell cardiomyocytes (iCell Cardiomyocyte v2.0, manufactured by FUJIFILM Cellular Dynamics, Inc.) were used as human iPS cell-derived cardiomyocytes (hereinafter referred to as CM2). The culture was performed by the following procedure.
In the same procedure as in the above (10), CM2 was seeded at a concentration of 6×10^4 cells/well in the aligned plate (96 well plate, ND Cell Aligner) and the planar plate (96 well plate). A maintenance culture was performed in a 37° C. CO2 incubator, and the drug was administered on day 15 with setting the day of seeding as day 0.
The drug was dissolved in DMSO and administered. First, as a pre-measurement, a measurement was performed without adding the drug. Immediately after the measurement, the drug dissolved in DMSO was added to each well so that the concentration was 3 PM, and the measurement was performed after 24 hours and 48 hours. The measurement was performed in the same manner as the (10-1) measurement by motion test method using live cell imaging device described above.
For the measurement data, the measurement value at the concentration of 3 μM was corrected with the average value of the pre-measurement without adding the drug (measurement value at 3 μM/measurement value of pre-measurement), and the change rate with setting the measurement value of the pre-measurement as 1 was determined.
In addition, a T test was performed between the planar plate and the aligned plate in the drug addition group. For the comparison group with a P value of 0.01 or less, the graph was marked.
DMSO used as the solvent was added so that the final concentration was 0.01%. The effect of DMSO was confirmed by measuring 0.01% DMSO addition group after 24 hours and 48 hours. The measurement data were processed in the same manner as the drug addition group.

[5] = test system: iCell cardiomyocyte CM2 (human iPS cell-derived cardiomyocytes); assay: Drug safety test-1: motion test method using live cell imaging device (SI8000); format: cell-based; settings: for CRD (corrected with beating rate): Dose1 1 μM, Dose2 3 μM, Dose3 10 μM; for beating rate (BR) / relaxation velocity (RV): day 5, cumulative dose1-dose3 of Table 2; for CRD (corrected with the beating rate): Dose2 0.3 μM and Dose3 1 μM, vs DMSO group
Experimental: as §1, §2
CM2 on day 5 of maintenance culture was used, and video data was first obtained as Dose0 using SI8000 (manufactured by Sony Corporation) without adding drugs. Immediately after the measurement, each drug at the concentration of dose1 was added to the same well plate, and video data was obtained after 15 minutes. For Dose2 and Dose3, the drug was cumulatively administered in the same manner, and video data was obtained. The addition test of each drug was performed at n=6.
The beating rate (BR), the contractile velocity (CV), the relaxation velocity (RV), and the contraction-relaxation duration (CRD) were analyzed from the video data of S18000, and the effects of the drugs on the motion of the cells were compared. The contraction-relaxation duration (CRD) was corrected by the following equation with reference to the equation of Frederica to correct variation due to the beating rate (BR).
For the side effects seen from the change in the parameters of SI8000, early after depolarization (EAD) and delayed after depolarization (DAD), small regular waveforms (VT-like), and reaction (waveform) disappearance were recorded. Changes in waveforms not classified into EAD or DAD were described as arrhythmia. The “-” in the table indicates the state in which no arrhythmia or the like has occurred.
The degree of arrhythmia is mild for EAD, moderate for DAD, and severe for vt-like.

[6] = aligned and planar plates, day 6

## Cc1[nH]c(=O)c(C#N)cc1-c1ccncc1 [Milrinone]
[1]; aligned plate
  beating rate (BR), relative to dose0: increased
  contractile velocity (CV), relative to dose0: increased
  relaxation velocity (RV), relative to dose0: increased
[1]; milrinone
  RV, aligned plate compared to planar plate: significantly increased
[1]; milrinone dose3 (300 μM)
  contractile velocity (CV), aligned plate compared to planar plate: significantly increased
  relaxation velocity (RV), aligned plate compared to before the drug addition: predominantly increased
[1]; milrinone, all doses (30, 100, 300 μM)
  beating rate (BR), aligned plate compared to before the drug addition: predominantly increased
[1]; planar plate
  beating rate (BR), relative to dose0: did not change
  contractile velocity (CV), relative to dose0: tended to reduce
  relaxation velocity (RV), relative to dose0: tended to reduce

## COc1cc(N)c(Cl)cc1C(=O)NC1CCN(CCCOc2ccc(F)cc2)CC1OC (stereo not drawn) [Cisapride]
[2]; [6]
  duration (20% waveform width of Ca transient): extended in a dose-dependent manner
  interval between peaks of Ca transient: extended in a dose-dependent manner
[2]; aligned plate, cisapride Dose1 0.01 μM to Dose3 0.1 μM, wells of 6
  incidence of arrhythmia: 1/6
[2]; cisapride, Dose3 0.1 μM
  difference between the value at Dose0 and at Dose3 (duration, interval), aligned plate versus planar plate: smaller
[2]; planar plate, cisapride 0.01-0.1 μM
  incidence of arrhythmia: No arrhythmia occurred

## C=C[C@H]1C[N@@]2CC[C@H]1C[C@@H]2[C@@H](O)c1ccnc2ccc(OC)cc12 [Quinidine]
[2]; aligned plate, quinidine Dose1, 3 μM, wells of 6
  incidence of moderate to severe arrhythmia (DAD, VT-like): 0/6
[2]; aligned plate, quinidine Dose2, 10 μM, wells of 6
  incidence of moderate to severe arrhythmia (DAD, VT-like): 0/6
[2]; aligned plate, quinidine Dose3, 30 μM, wells of 6
  incidence of moderate to severe arrhythmia (DAD, VT-like): 6/6
[2]; planar plate, quinidine Dose1, 3 μM, wells of 6
  incidence of moderate to severe arrhythmia: 0/6
[2]; planar plate, quinidine Dose2, 10 μM, wells of 6
  incidence of moderate to severe arrhythmia: 0/6
[2]; planar plate, quinidine Dose3, 30 μM, wells of 6
  incidence of moderate to severe arrhythmia: 4/6
[2]; quinidine Dose2, 10 μM
  duration of Ca transient, planar plate compared to aligned plate: longer extension
  interval of Ca transient, planar plate compared to aligned plate: longer extension
  peak height of Ca transient, planar plate compared to aligned plate: significantly weaker decrease
[2]; quinidine Dose3, 30 μM
  contraction force: greatly reduced
  waveform of Ca transient: changed to a higher frequency waveform

## CCOC(=O)[C@@]1(CCCCCCOc2ccc(Cl)cc2)CO1 [Etomoxir]
[3]; aligned plate
  OCR compared to OCR before addition: 11.0%
  OCR with addition of Etomoxir: 7.0 pmol/min
[3]; planar plate
  OCR compared to OCR before addition: 98.3%
  OCR with addition of Etomoxir: 77.8 pmol/min

## COc1cccc2c1C(=O)c1c(O)c3c(c(O)c1C2=O)C[C@@](O)(C(=O)CO)C[C@@H]3O[C@H]1C[C@H](N)[C@H](O)[C@H](C)O1 [Doxorubicin, doxorubicin]
[4]
  beating rate, aligned plate compared to planar plate: significantly increased
  beating rate, result after 48 hours compared with after 24 hours: more increased
[4]; after 48 hours
  RV, aligned plate compared to planar plate: significantly increased
[4]; aligned plate
  relaxation velocity (RV), change rate vs pre-measurement: increased
  beating rate (BR), change rate vs pre-measurement: increased
[4]; planar plate
  relaxation velocity (RV), change rate vs pre-measurement: increased
  beating rate (BR), change rate vs pre-measurement: increased

## CC(C)NCC(O)c1ccc(O)c(O)c1 (stereo not drawn) [Isoproterenol]
[5]; aligned and planar plate, any concentration (1, 3, 10 μM)
  arrhythmia or the like: No arrhythmia or the like was observed
[5]; aligned plate
  CRD (corrected with beating rate): extended
  beating rate (BR): tended to increase
  relaxation velocity (RV): tended to increase
[5]; planar plate, 1, 3, 10 μM
  change of CRD compared with the solvent (DMSO): largely different from that of the solvent (DMSO)
[5]; planar plate
  CRD (corrected with beating rate): extended
  beating rate (BR): tended to increase
  relaxation velocity (RV): tended to increase
[1]; aligned plate
  beating rate (BR), relative to dose0: increased
  contractile velocity (CV), relative to dose0: increased
  relaxation velocity (RV), relative to dose0: increased
[1]; isoproterenol dose2 (0.3 μM) and dose3 (3 μM)
  relaxation velocity, aligned plate compared to planar plate: increased
[1]; planar plate
  beating rate (BR), relative to dose0: increased
  contractile velocity (CV), relative to dose0: tended to reduce
  relaxation velocity (RV), relative to dose0: increased
[2]; [6]
  duration (20% waveform width of Ca transient): Reduction was observed
  interval between peaks of Ca transient: Reduction was observed
[2]; aligned and planar plates, up to high concentration (Dose3, 10 μM)
  arrhythmia: arrhythmia did not occur
[2]; planar plate, isoproterenol 1, 3, 10 μM
  reduction in duration: small

## Cc1cccc(CCN2CCC(C(=O)c3ccc(NS(C)(=O)=O)cc3)CC2)n1 [E-4031]
[5]; aligned plate
  CRD (corrected with the beating rate): significantly reduced
  beating rate (BR): reduced
  relaxation velocity (RV): reduced
[5]; planar plate
  CRD (corrected with the beating rate): significantly reduced
  beating rate (BR): reduced
  relaxation velocity (RV): reduced
[5]; planar plate, E-4031
  CRD (corrected with the beating rate), planar plate compared with aligned plate: reduced more remarkably
[2]; E-4031 0.1 μM, day 6
  Duration of Ca transient, planar plate compared with aligned plate: slightly longer
[2]; E-4031 0.3 μM, day 6
  Duration of Ca transient, planar plate compared with aligned plate: significantly longer
[2]; E-4031 1 μM, day 6
  Duration of Ca transient, planar plate: not significantly but remarkably extended
